Experiment [1] has as its system progressive/metastatic pancreatic cancer. Briefly: Clinical performance of gemcitabine hydrochloride monotherapy in progressive/metastatic pancreatic cancer patients. It counts as in vivo, human. An excerpt: Thus, the tumor reducing effect and ascites eliminating effect observed in one case of combination therapy were not observed with monotherapy.
In another experiment the test system is pancreatic cancer. The note with it: first-line therapy, foreign phase III clinical trials; cited from earlier work.

Where a name gives a salt, the structure may show the parent alone.

As for `Nc1ccn([C@@H]2O[C@H](CO)[C@@H](O)C2(F)F)c(=O)n1` [gemcitabine hydrochloride], in experiment [1] (3 months after the start of monotherapy, 25 analyzable cases, 95% confidence interval 4.6-67.4%), the “Average change in tumor size (increase)” value was found to be 36.0%. Moreover, the Ascites elimination result in experiment [1] (during the monotherapy of 3 months, 29 analyzable cases) is “ascites was not eliminated”. For the same compound, in the experiment with pancreatic cancer, the “Efficacy in symptom palliation” value is reported as 23.8%, the Median survival time was 5.7 months and the One-year survival rate is listed as 18%.

The values are drawn from US11285208B2, “Therapeutic agents for pancreatic cancer” (NATIONAL CANCER CENTER, priority 2010, dated 2022).
